According to PubChem BioAssay (NCI):
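Method: 48-hour compound exposure of cells in 96-well plates, five concentrations, linear interpolation of endpoints. TGI: total growth inhibition.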

Legend:
Test in all cases: NCI anticancer screen, dose series, 48 h
786-0 renal = tested on: 786-0 renal
A498 renal = tested on: A498 renal
A549 NSCLC = tested on: A549 NSCLC
ACHN renal = tested on: ACHN renal
BT-549 breast = tested on: BT-549 breast
CAKI-1 renal = tested on: CAKI-1 renal
CCRF-CEM leukemia = tested on: CCRF-CEM leukemia
COLO 205 colon = tested on: COLO 205 colon
DU-145 prostate = tested on: DU-145 prostate
EKVX NSCLC = tested on: EKVX NSCLC
HCC-2998 colon = tested on: HCC-2998 colon
HCT-116 colon = tested on: HCT-116 colon
HCT-15 colon = tested on: HCT-15 colon
HL-60(TB) leukemia = tested on: HL-60(TB) leukemia
HOP-62 NSCLC = tested on: HOP-62 NSCLC
HOP-92 NSCLC = tested on: HOP-92 NSCLC
HS 578T breast = tested on: HS 578T breast
HT29 colon = tested on: HT29 colon
IGROV1 ovarian = tested on: IGROV1 ovarian
K-562 leukemia = tested on: K-562 leukemia
KM12 colon = tested on: KM12 colon
LOX IMVI melanoma = tested on: LOX IMVI melanoma
M14 melanoma = tested on: M14 melanoma
MALME-3M melanoma = tested on: MALME-3M melanoma
MCF7 breast = tested on: MCF7 breast
MDA-MB-231 breast = tested on: MDA-MB-231 breast
MDA-MB-435 = tested on: MDA-MB-435
MDA-N = tested on: MDA-N
NCI-H226 lung = tested on: NCI-H226 lung
NCI-H23 lung = tested on: NCI-H23 lung
NCI-H460 lung = tested on: NCI-H460 lung
NCI-H522 lung = tested on: NCI-H522 lung
NCI/ADR-RES ovarian = tested on: NCI/ADR-RES ovarian
OVCAR-3 ovarian = tested on: OVCAR-3 ovarian
OVCAR-4 ovarian = tested on: OVCAR-4 ovarian
OVCAR-5 ovarian = tested on: OVCAR-5 ovarian
OVCAR-8 ovarian = tested on: OVCAR-8 ovarian
PC-3 prostate = tested on: PC-3 prostate
RPMI-8226 leukemia = tested on: RPMI-8226 leukemia
RXF 393 renal = tested on: RXF 393 renal
SF-268 CNS = tested on: SF-268 CNS
SF-295 CNS = tested on: SF-295 CNS
SF-539 CNS = tested on: SF-539 CNS
SK-MEL-2 melanoma = tested on: SK-MEL-2 melanoma
SK-MEL-28 melanoma = tested on: SK-MEL-28 melanoma
SK-MEL-5 melanoma = tested on: SK-MEL-5 melanoma
SK-OV-3 ovarian = tested on: SK-OV-3 ovarian
SN12C renal = tested on: SN12C renal
SNB-19 CNS = tested on: SNB-19 CNS
SNB-75 CNS = tested on: SNB-75 CNS
SW-620 colon = tested on: SW-620 colon
T-47D breast = tested on: T-47D breast
TK-10 renal = tested on: TK-10 renal
U251 CNS = tested on: U251 CNS
UACC-257 melanoma = tested on: UACC-257 melanoma
UACC-62 melanoma = tested on: UACC-62 melanoma
UO-31 renal = tested on: UO-31 renal

## CC(=O)c1ccc(Oc2c3ccccc3nc3ccccc23)cc1
786-0 renal
  TGI: 9.61 µM
A498 renal
  TGI: 31.8 µM
A549 NSCLC
  TGI: 31.7 µM
ACHN renal
  TGI: 15.9 µM
BT-549 breast
  TGI: 27.1 µM
CAKI-1 renal
  TGI: 17.3 µM
CCRF-CEM leukemia
  TGI: 8.43 µM
COLO 205 colon
  TGI: 7.55 µM
DU-145 prostate
  TGI: 15.2 µM
EKVX NSCLC
  TGI: 35.1 µM
HCC-2998 colon
  TGI: 24 µM
HCT-116 colon
  TGI: 8.81 µM
HCT-15 colon
  TGI: 17.5 µM
HL-60(TB) leukemia
  TGI: 0.463 µM
HOP-62 NSCLC
  TGI: 29.5 µM
HOP-92 NSCLC
  TGI: 25.6 µM
HS 578T breast
  TGI: 31.3 µM
HT29 colon
  TGI: 6.69 µM
IGROV1 ovarian
  TGI: 17.4 µM
K-562 leukemia
  TGI: 20.1 µM
KM12 colon
  TGI: 22.7 µM
LOX IMVI melanoma
  TGI: 17.9 µM
M14 melanoma
  TGI: 14.6 µM
MALME-3M melanoma
  TGI: 27.2 µM
MCF7 breast
  TGI: 12.1 µM
MDA-MB-231 breast
  TGI: 25.5 µM
MDA-MB-435
  TGI: 10.5 µM
MDA-N
  TGI: 14.2 µM
NCI-H226 lung
  TGI: 26.4 µM
NCI-H23 lung
  TGI: 56.6 µM
NCI-H460 lung
  TGI: 31.9 µM
NCI-H522 lung
  TGI: 25.4 µM
NCI/ADR-RES ovarian
  TGI: 30.4 µM
OVCAR-3 ovarian
  TGI: 21 µM
OVCAR-4 ovarian
  TGI: 18.6 µM
OVCAR-5 ovarian
  TGI: 23.9 µM
OVCAR-8 ovarian
  TGI: 22.2 µM
PC-3 prostate
  TGI: 20.3 µM
RPMI-8226 leukemia
  TGI: 9.63 µM
RXF 393 renal
  TGI: 21.3 µM
SF-268 CNS
  TGI: 17.9 µM
SF-295 CNS
  TGI: 28.2 µM
SF-539 CNS
  TGI: 5.5 µM
SK-MEL-2 melanoma
  TGI: 21.4 µM
SK-MEL-28 melanoma
  TGI: 28.5 µM
SK-MEL-5 melanoma
  TGI: 28.6 µM
SK-OV-3 ovarian
  TGI: 29.3 µM
SN12C renal
  TGI: 16 µM
SNB-19 CNS
  TGI: 37.8 µM
SNB-75 CNS
  TGI: 29.7 µM
SW-620 colon
  TGI: 20.5 µM
T-47D breast
  TGI: 18 µM
TK-10 renal
  TGI: 19.8 µM
U251 CNS
  TGI: 25.9 µM
UACC-257 melanoma
  TGI: 15.4 µM
UACC-62 melanoma
  TGI: 17 µM
UO-31 renal
  TGI: 13.2 µM
